Columns and labels:
[1] = system: Tsp-1 and p53 expression in prostate fibroblasts; assay: Tsp-1 and p53 expression in prostate fibroblasts treated with peptides, western blot; assay type: cell-based; details: FIG. 2; compared with the longer peptide of the 35-40 region
Method: Methods of assaying the effects of a polypeptide described herein on Tsp-1 and p53 expression are described herein. Briefly, a control Psap alongside a test polypeptide, is applied to a cell culture of prostate fibroblasts. The conditioned media from PC3M-LN4 (LN4) and PC3 cells are used as controls, with PC3 as positive/stimulating control and LN4 as negative/inhibiting controls. After a period of incubation (˜16 h), the cells are harvested, rinsed, and lysed. The lysates are analyzed for the level of Tsp-1 and p53 expression by western blot analyses, with β-actin as the internal lysate protein loading control.
These peptides were used to treat prostate and lung fibroblasts in vitro at a concentration of 10 ug/mL for 16 hours in ATCC-specified media supplemented with 0.1% FBS. Tsp-1 and p53 expression was analyzed by western blot as described previously (Kang, Y., et al., (2003) Cancer Cell 3:537-549.)

[2] = system: Lewis Lung Carcinoma cells; assay: Lewis Lung Carcinoma tail vein lung metastasis model, bioluminescence; assay type: in vivo, C57Bl6 mice
Method: C57Bl6 mice were injected with 1×10^6 Lewis Lung Carcinoma cells via tail vein. After 10 days the animals were treated with either PBS or a peptide corresponding to residues 36-40 of saposin A at a dose of 30 mg/kg/day via i.p. injection. After 16 days of treatment all animals were sacrificed, lungs were weighed and harvested. Tissues were either fixed in NBF, or lysed and analyzed for Tsp-1 and p53 expression by western blot analysis.
1×10^6 luciferase-expressing LLC cells were then injected via tail vein into C57Bl6 mice. After 5 days the mice were treated with the 5-amino acid peptide at a dose of 30 mg/kg/day via i.p. injection. After 29 days the animals were sacrificed, at which point the average luciferase activity in the peptide treated mice, as measured by a Xeongoen IVIS system, was 2% that of the luciferase activity in mice treated with a scrambled peptide (FIG. 8).
For experimental metastasis, 7-week old C57BL/6 mice were injected via tail vein with 1×10^5 luciferase-labeled LLC cells. Metastatic growth was monitored over time using bioluminescence imaging performed with mice in a supine position 5 min after D-luciferin injection with a Xenogen IVIS system coupled to Living Image acquisition and analysis software (Xenogen). For BLI plots, photon flux was calculated for each mouse by using the same circular region of interest encompassing the thorax of the mouse.

[3] = system: MDA-MB-231-LM2 breast cancer cells; assay: Orthotopic MDA-MB-231-LM2 breast cancer model, lung metastasis after primary tumor resection; assay type: in vivo, SCID mice
Method: For orthotopic breast cancer cell injections, 5×10^6 viable MDA-MB-231 or its metastatic variant MDA-MB-LM2 cells, were injected into CB-17 SCID mice fat pads in a volume of 0.1 ml. Tumor growth and pulmonary metastases (following resection of primary tumor) were monitored by live animal bioluminescence imaging (Xenogen) once per week. For orthotopic prostate cancer cell injections, 2×10^6 viable LN4 or LN4-psap cells were injected into the prostate gland of mice. For in vivo determination of the metastatic burden, mice were anaesthetized and injected intraperitoneally with 75 mg/kg of D-luciferin (100 uL of 30 mg/mL in PBS). Metastatic growth was monitored over time using bioluminescence imaging performed with mice in a supine position 5 min after D-luciferin injection with a Xenogen IVIS system coupled to Living Image acquisition and analysis software (Xenogen). For BLI plots, photon flux was calculated for each mouse by using the same circular region of interest encompassing the thorax of the mouse.
The ability of the DWLPK (SEQ ID NO: 4) peptide to inhibit metastasis was tested in an orthotopic, clinically relevant, model of breast cancer metastatic to the lung. […] Lung metastases were assessed 3 weeks after the primary tumor removal (week 6 after primary tumor injection).

[4] = system: Tsp-1 expression in Gr1+ cells; assay: Tsp-1 in Gr1+ cells in lungs of mice given PC3M-LN4 CM plus peptide; assay type: in vivo, C57BL/6J mice
Method: CM from PC3M-LN4 cells cultured in serum-free medium for 24 hours was harvested, centrifuged and filtered through […] pore-size filters to remove any cells or cell debris. Wild-type C57BL/6J mice were treated with 200 μL serum-free conditioned media from PC3M-LN4 cells daily for 6 days via intraperitoneal (i.p.) injection in combination with DWLPK (SEQ ID NO: 4) peptide or scrambled peptide.
Animals were euthanized at the end of experiments and lungs were quickly perfused by injecting 5 ml of cold PBS through the right ventricle of the heart. One part of the lung from each animal was fixed in 3.7% formalin and the other part was sorted by flow cytometry for either protein or RNA extraction.
For microscopy, following formalin fixation, tissues were cryoembedded in Tissue-Tek O.C.T. embedding compound (Electron Microscopy Sciences). Sections (30 μm) were washed 3 times in PBS and incubated in blocking/permeabilization buffer (PBS+2 mM EDTA, 1% BSA, 1% Goat Serum, 0.05% Triton X-100). […]
Total RNA from flow cytometry sorted cells was extracted using the PicoPure RNA extraction kit (Arcturus) following the manufacturer's protocol. […] The relative abundance of each transcript compared with the control was calculated utilizing the delta-Ct method.

DWLPK [5-amino acid peptide corresponding to residues 36-40 of saposin A]
ability to stimulate Tsp-1 in prostate fibroblasts after removing a terminal residue [1]: increased the ability of the resulting 5-amino acid peptide to stimulate Tsp-1 | average luciferase activity relative to mice treated with a scrambled peptide ([2]; 30 mg/kg/day i.p. from day 5, after 29 days, IVIS): 2% | lung metastases by bioluminescence imaging ([2]; LLC-luc cells via tail vein, compared to scrambled peptide): dramatically reduced lung metastases | Tsp-1 in the Gr1+ myeloid compartment of lungs ([3]; compared to scrambled peptide): persistent Tsp-1 upregulation | reduction of the metastatic burden in the lungs ([3]; daily treatment after resection, 3 weeks after primary tumor removal, versus scramble peptide): 50% | recruitment of Gr1+ cells in the lungs ([4]; LN4 CM alone or in combination with peptide): identical regardless of the treatment | Tsp-1 expression in the Gr1+ cells ([4]; LN4 CM daily for 6 days i.p. in combination with peptide): more than two fold

Source: US12285459B2, “Saposin-A derived peptides and uses thereof” (CHILDREN'S MEDICAL CENTER CORPORATION, priority 2011, dated 2025)
